According to the NIST ThermoML archive (doi:10.1021/acs.jced.7b00002):
Numbers after ± are expanded uncertainties.

Assay: xn = mol fraction of the nth substance listed
Details: 97.6 kPa, Liquid; for viscosity: Capillary tube (Ostwald / Ubbelohde) method; for mass density: Vibrating tube method

CCCCCCCC[n+]1ccn(C)c1.[Cl-] [1-methyl-3-octylimidazolium chloride] + C[S+](C)[O-]
Details	mass density [kg/m3]	viscosity [mPa·s]
303.15 K, x1 = 0.13	1067.88 ± 2.2	6.85
303.15 K, x1 = 0.253	1051.57 ± 2.1	24.14
303.15 K, x1 = 0.338	1042.77 ± 2.1	55.12
303.15 K, x1 = 0.439	1034.29 ± 2.1	143.43
303.15 K, x1 = 0.574	1025.26 ± 2.1	371.36
303.15 K, x1 = 0.75	1015.41 ± 2.1	1084.7
303.15 K, x1 = 0.862	1011.18 ± 2.1	3235.6
303.15 K, x1 = 1	1006.2 ± 2.2	7339.7
308.15 K, x1 = 0.13	1063.71 ± 2.1	6
308.15 K, x1 = 0.253	1047.84 ± 2.1	19.97
308.15 K, x1 = 0.338	1039.2 ± 2.1	43.8
308.15 K, x1 = 0.439	1030.91 ± 2.1	107.7
308.15 K, x1 = 0.574	1022.09 ± 2.1	264.22
308.15 K, x1 = 0.75	1012.38 ± 2.1	742.47
308.15 K, x1 = 0.862	1008.24 ± 2.1	2150.9
308.15 K, x1 = 1	1003.33 ± 2.1	4272.9
313.15 K, x1 = 0.13	1059.55 ± 2.1	5.24
313.15 K, x1 = 0.253	1044.09 ± 2.1	16.54
313.15 K, x1 = 0.338	1035.65 ± 2.1	34.98
313.15 K, x1 = 0.439	1027.54 ± 2.1	82.42
313.15 K, x1 = 0.574	1018.92 ± 2.1	192.92
313.15 K, x1 = 0.75	1009.41 ± 2.1	508.33
313.15 K, x1 = 0.862	1005.31 ± 2.1	1404.4
313.15 K, x1 = 1	1000.48 ± 2.1	2766.9
318.15 K, x1 = 0.13	1055.41 ± 2.1	4.62
318.15 K, x1 = 0.253	1040.39 ± 2.1	13.89
318.15 K, x1 = 0.338	1032.11 ± 2.1	28.15
318.15 K, x1 = 0.439	1024.18 ± 2.1	63.95
318.15 K, x1 = 0.574	1015.75 ± 2.1	143.95
318.15 K, x1 = 0.75	1006.46 ± 2.1	363.38
318.15 K, x1 = 0.862	1002.4 ± 2.1	943.52
318.15 K, x1 = 1	997.64 ± 2.1	1788.6
323.15 K, x1 = 0.13	1051.26 ± 2.1	4.1
323.15 K, x1 = 0.253	1036.65 ± 2.1	11.8
323.15 K, x1 = 0.338	1028.58 ± 2.1	23.25
323.15 K, x1 = 0.439	1020.83 ± 2.1	50.83
323.15 K, x1 = 0.574	1012.58 ± 2.1	109.49
323.15 K, x1 = 0.75	1003.51 ± 2.1	264.93
323.15 K, x1 = 0.862	999.47 ± 2.1	653.9
323.15 K, x1 = 1	994.82 ± 2.1	1198.7
328.15 K, x1 = 0.13	1047.12 ± 2.1	3.67
328.15 K, x1 = 0.253	1032.95 ± 2.1	10.12
328.15 K, x1 = 0.338	1025.06 ± 2.1	19.36
328.15 K, x1 = 0.439	1017.51 ± 2.1	41.01
328.15 K, x1 = 0.574	1009.43 ± 2.1	84.97
328.15 K, x1 = 0.75	1000.56 ± 2.1	197.17
328.15 K, x1 = 0.862	996.58 ± 2.1	466.77
328.15 K, x1 = 1	992 ± 2.1	828.3
333.15 K, x1 = 0.13	1042.98 ± 2.1	3.31
333.15 K, x1 = 0.253	1029.24 ± 2.1	8.78
333.15 K, x1 = 0.338	1021.55 ± 2.1	16.31
333.15 K, x1 = 0.439	1014.19 ± 2.1	33.28
333.15 K, x1 = 0.574	1006.28 ± 2.1	67.04
333.15 K, x1 = 0.75	997.59 ± 2.1	149.71
333.15 K, x1 = 0.862	993.72 ± 2.1	338.65
333.15 K, x1 = 1	989.17 ± 2.1	588.69
338.15 K, x1 = 0.13	1038.85 ± 2.1	3
338.15 K, x1 = 0.253	1025.55 ± 2.1	7.66
338.15 K, x1 = 0.338	1018.05 ± 2.1	13.91
338.15 K, x1 = 0.439	1010.88 ± 2.1	27.38
338.15 K, x1 = 0.574	1003.15 ± 2.1	53.77
338.15 K, x1 = 0.75	994.64 ± 2.1	115.48
338.15 K, x1 = 0.862	990.88 ± 2.1	250.15
338.15 K, x1 = 1	986.38 ± 2.1	426.28
343.15 K, x1 = 0.13	1034.72 ± 2.1	2.72
343.15 K, x1 = 0.253	1021.86 ± 2.1	6.75
343.15 K, x1 = 0.338	1014.56 ± 2.1	11.95
343.15 K, x1 = 0.439	1007.59 ± 2.1	22.97
343.15 K, x1 = 0.574	1000.03 ± 2.1	43.6
343.15 K, x1 = 0.75	991.75 ± 2.1	90.8
343.15 K, x1 = 0.862	988.04 ± 2.1	189.55
343.15 K, x1 = 1	983.63 ± 2.1	316.66
348.15 K, x1 = 0.13	1030.6 ± 2.1	2.5
348.15 K, x1 = 0.253	1018.18 ± 2.1	5.98
348.15 K, x1 = 0.338	1011.07 ± 2.1	10.37
348.15 K, x1 = 0.439	1004.31 ± 2	19.28
348.15 K, x1 = 0.574	996.93 ± 2	35.76
348.15 K, x1 = 0.75	988.9 ± 2.1	72.27
348.15 K, x1 = 0.862	985.2 ± 2.1	145.53
348.15 K, x1 = 1	980.88 ± 2.1	237.14
353.15 K, x1 = 0.13	1026.47 ± 2.1	2.29
353.15 K, x1 = 0.253	1014.51 ± 2.1	5.34
353.15 K, x1 = 0.338	1007.6 ± 2	9.06
353.15 K, x1 = 0.439	1001.04 ± 2	16.49
353.15 K, x1 = 0.574	993.83 ± 2	29.9
353.15 K, x1 = 0.75	985.96 ± 2.1	58.87
353.15 K, x1 = 0.862	982.37 ± 2.1	113.93
353.15 K, x1 = 1	978.13 ± 2.1	181.41
